# Measured values reported in patent US10045994B2, “Agents for treating multiple myeloma” (SERVICIO ANDALUZ DE SALUD, priority 2013, dated 2018).
# Entries after “also recorded” stand apart in the source; their conditions may differ. Where two headings read alike, the source gives them in different places.
# Tests used:
# [1] = tested on: CD45+ lymphocytes; test: 7AAD viability of lymphocytes in primary bone marrow culture of myeloma patients; format: cell-based, human
# Method: (§1) Finally, the authors of the present invention evaluated the toxicity of cannabinoid agent WIN 55,212-2, which was determined in terms of cell viability by means of two types of assays, one based on the drop in 3(4,5dimethyl-2-thiazoyl)-2,5-diphenyltetrazolic bromide (MTT), and another one based on the interaction of 7AAD. Primary cultures of mononuclear cells obtained from peripheral blood from healthy donors (CD34+ hematopoietic progenitors) and from bone marrow of patients suffering multiple myeloma (CD64+, granulocytes (B), CD45+, lymphocytes (C) and CD38+, plasma cells (D)) were used. […]
# (§2) For the viability analysis by means of flow cytometry, the cells were treated with suitably labeled monoclonal antibodies for the identification of each of the cell types used. Once labeled; the cells were exposed for 15 min to 7AAD ([…]) to evaluate cell viability; the reading was performed in the cytometer and analyzed with the computer program adapted for the cytometer. At least 100,000 events were acquired, and the mean fluorescence intensity was obtained.
# (§3) The authors of the present invention evaluated the toxicity of cannabinoid agent WIN 55,212-2, which was determined in terms of cell viability by means of two types of assays, one based on the drop in 3(4,5dimethyl-2-thiazoyl)-2,5-diphenyltetrazolic (MTT) bromide, and another one based on the interaction of the 7AAD. […]
# [2] = tested on: CD38+ plasma cells; test: 7AAD viability of plasma cells in primary bone marrow culture of myeloma patients; format: cell-based, human
# Method: Finally, the authors of the present invention evaluated the toxicity of cannabinoid agent WIN 55,212-2, which was determined in terms of cell viability by means of two types of assays, one based on the drop in 3(4,5dimethyl-2-thiazoyl)-2,5-diphenyltetrazolic bromide (MTT), and another one based on the interaction of 7AAD. Primary cultures of mononuclear cells obtained from peripheral blood from healthy donors (CD34+ hematopoietic progenitors) and from bone marrow of patients suffering multiple myeloma (CD64+, granulocytes (B), CD45+, lymphocytes (C) and CD38+, plasma cells (D)) were used.
# The plasma cells, granulocytes and lymphocytes were obtained from bone marrow samples from patients with multiple myeloma after hypotonic lysis with ammonium chloride (0.16 M in 0.17 M Tris, pH 7.6) for 10 min at room temperature, for the purpose of removing the erythrocyte cell population. The cell suspension resulting from lysis, which only contains mononuclear cells, was seeded in multiwell plates at the same cell density as the progenitor cells using supplemented RPMI medium plus 20% fetal bovine serum.
# The primary cultures were incubated in the presence and absence of the cannabinoid agent WIN 55,212-2 at different concentrations. […]
# as §2, §3
# [3] = tested on: CD34+ hematopoietic progenitors; test: MTT cytotoxicity on CD34+ hematopoietic progenitors from healthy donors; format: cell-based, human; details: CD34+ hematopoietic progenitors of healthy donors, 0.5-50 micromol, 12 or 18 h
# Method: as §1
# The method for the determination of cell viability by means of the MTT assay is based on the capacity that viable cells have of metabolizing 3-(4,5-dimethylthiazol-2-yl)-2,5-diphenyltetrazol (MTT) bromide. The metabolic reduction of MTT due to the action of the mitochondrial enzyme, succinate dehydrogenase, gives rise to the insoluble and colored form called formazan, which can be quantified by means of spectrocolorimetry. […]
# After incubation with cannabinoids, 10 microliters of MTT were added to each well and were incubated 2-4 hours in the same conditions. The reaction is subsequently stopped, the crystallized formazan is solubilized and optical density was determined at 450 nm in a plate spectrophotometer. […]
# [4] = tested on: myeloma cell line U266; test: Cell viability by flow cytometry (7AAD labeling), U266; format: cell-based; details: U266, 7AAD flow cytometry, 48 h
# Method: These same assays were repeated incubating the myeloma cell line U266 for a period of 48 hours with increasing concentrations of WIN 55,212-2 between 0.5 and 50 uM.
# as §2
# These same assays were repeated, incubating myeloma cell line U266 for a period of 48 hours with increasing concentrations of WIN 55,212-2 between 0.5 and 50 uM. Nevertheless, cell viability was determined by means of flow cytometry instead of by means of MTT metabolization.
# [5] = tested on: CD64+ granulocytes (polymorphonuclear cells); test: 7AAD viability of granulocytes in primary bone marrow culture of myeloma patients; format: cell-based, human; details: 0.5-50 micromol, 18 h
# Method: as §1, §2, §3
# [6] = tested on: myeloma cell line U266; test: MTT cell viability, myeloma cell line U266; format: cell-based; details: for cytotoxicity at 50 µM: Homo sapiens
# Method: In order to determine the effect of the cannabinoid compound WIN 55,212-2, myeloma cell line U266 was incubated for a period of 48 and 96 hours with increasing concentrations of WIN 55,212-2 between 0.5 and 50 uM; cell viability was determined by means of the MTT metabolization. The MTT assay is based on the capacity of the mitochondrial enzyme, succinate dehydrogenase, of viable cells for transforming the tetrazolium salt MTT into a blue-colored product, MTT formazan, which is proportional to the number of living cells present. The mean proliferation values of the untreated control cell cultures were taken as 100%.
# (§4) The method for the determination of cell viability by means of the MTT assay is based on the capacity that viable cells have of metabolizing 3-(4,5-dimethylthiazol-2-yl)-2,5-diphenyltetrazol (MTT) bromide. The metabolic reduction of MTT due to the action of the mitochondrial enzyme, succinate dehydrogenase, gives rise to the insoluble and colored form called formazan, which can be quantified by means of spectrocolorimetry. The amount of living cells is proportional to the optical density resulting.
# (§5) After incubation with cannabinoids, 10 microliters of MTT were added to each well and were incubated 2-4 hours in the same conditions. The reaction is subsequently stopped, the crystallized formazan is solubilized and optical density was determined at 450 nm in a plate spectrophotometer. All the assays were performed in triplicate.
# To determine the effect of cannabinoid compound WIN 55,212-2, myeloma cell line U266 was incubated for a period of 48 and 96 hours with increasing concentrations of WIN 55,212-2 between 0.5 and 50 uM; cell viability was determined by means of MTT metabolization. The MTT assay is based on the capacity of the mitochondrial enzyme, succinate dehydrogenase, of viable cells to transform tetrazolium salt MTT into a blue-colored product, formazan MTT, which is proportional to the number of living cells present. Mean proliferation values of untreated control cell cultures were taken as 100%.
# [7] = tested on: multiple myeloma cell line MM1.S; test: MTT cell viability, multiple myeloma cell line MM1.S; format: cell-based
# Method: (§6) In this sense, in order to carry out these assays the authors incubated the myeloma cell line MM1.S at different concentrations with the cannabinoid agent WIN 55-212,2 for 48 and 96 hours, and cell viability was determined by means of MTT metabolization. Mean proliferation values of untreated control cell cultures were taken as 100%. The data corresponds to the means+/−the standard deviation of the triplicates of each of the 4 assays performed. […] Cell viability also drops after 96 hours of exposure to the drug at the same concentrations.
# as §4, §5
# as §6, with “incubated” for “incubated the”, “the means +/− the” for “the means+/−the”, “drug ay” for “drug at”
smiles,measurement,setting,value
"Cc1c(C(=O)c2cccc3ccccc23)c2cccc3c2n1[C@H](CN1CCOCC1)CO3 [WIN 55,212-2, (R)-(+)-[2,3-Dihydro-5-methyl-3-(4-morpholinylmethyl)pyrrolo[1,2,3-de]-1,4 benzoxazin-6-yl]-1-naphtalenylmethanone]",loss of viability,"[1]; 0.5-50 micromol, 12 or 18 h",only detected at the highest dose
same,drop in cell viability,"[1]; 7AAD, 18 h, 50 uM",40%
same,cytotoxicity at 50 µM,"[2]; Homo sapiens, 18 h, read-out: reduction of cell viability",> 80%
same,doses producing a drastic drop in cell viability,"[2]; plasma cells, bone marrow primary culture, 12 or 18 h",greater than 10 uM
same,population of plasma cells after incubation,"[2]; plasma cells, bone marrow primary culture, 18 h, 20 uM and 50 uM",drastically reduced
same,cell viability,[3],not affected
same,"concentration from which a cytotoxic effect (significant drop in cell viability, p<0.05) is seen",[4],≥ 10 µM
same,cell viability,[5],not affected
same,cytotoxicity at 50 µM,"[6]; U-266, 48 h, read-out: inhibition of cell viability, U266, MTT, 48 h, 50 uM",~60%
same,cytotoxicity at 50 µM,"[6]; U-266, 96 h, read-out: inhibition (drop) of cell viability, U266, MTT, 96 h, 50 uM",~80%
same,cell viability drops to,"[6]; U266, MTT, 48 h, 10 uM and 20 uM, untreated control = 100%",40%
same,inhibition of cell viability,"[6]; U266, MTT, 48 h, between 10 uM and 20 uM",about 40%
same,sensitivity of cell line MM1.S compared with cell line U266,[7]; 48 and 96 h,more sensitive
same,concentration after which cell viability noticeably dropped,"[7]; MM1.S, 48 h",greater than 1 uM
same,cytotoxicity,"[7]; MM1.S, 48 h, 10 uM, 20 uM and 50 uM",greater than 50%
same,cell viability after longer incubation,"[7]; MM1.S, 96 h, same concentrations as at 48 h",also drops; also recorded: also affected
same,drop in cell viability at 96 h compared with 48 h,"[7]; MM1.S, 96 h vs 48 h",lower than at short incubation times
